Results taken from patent publication US11730705B2, “Small molecule CMKLR1 antagonists in inflammatory disease” (The Board of Trustees of the Leland Stanford Junior …, priority 2019, dated 2023).
Where two headings read alike, the source gives them in different places.

Tests used:
CMKLR1 = target: T1, CMKLR1 (Homo sapiens, UniProt Q99788); assay: β-arrestin recruitment assay (chemerin-mediated β-arrestin2 association with CMKLR1); assay type: cell-based
T1 construct: host or cells: CHO-K1 (PathHunter)
T1 sequence (Q99788 1-373): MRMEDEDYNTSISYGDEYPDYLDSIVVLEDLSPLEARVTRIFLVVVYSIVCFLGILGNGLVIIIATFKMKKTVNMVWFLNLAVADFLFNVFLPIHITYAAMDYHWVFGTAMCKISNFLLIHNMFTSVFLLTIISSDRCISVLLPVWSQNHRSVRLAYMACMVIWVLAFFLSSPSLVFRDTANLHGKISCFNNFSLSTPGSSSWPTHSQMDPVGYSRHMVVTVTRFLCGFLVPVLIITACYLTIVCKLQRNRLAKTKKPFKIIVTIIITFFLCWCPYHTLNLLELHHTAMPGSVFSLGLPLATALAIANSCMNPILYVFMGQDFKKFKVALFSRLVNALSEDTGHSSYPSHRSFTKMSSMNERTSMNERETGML
Procedure: (§1) FIG. 15A-15D. […] IC50 values were determined based on 6-point dose-response curves for each compound. (FIG. 15A) α-NETA. […] (FIG. 15A-15C) mean±SEM, n=3-18 independent experiments. […] 0.2 ml each compound (in 10% captisol) or vehicle control was administered by oral gavage beginning one day prior to psoriasis induction. Back skin thickness was measured daily and normalized to day 0. mean±SEM, n=10 mice for vehicle and α-NETA groups pooled from two independent trials; n=3 mice for (27) and (6) from one trial.
Cell culture. […] DiscoverX PathHunter® CHO-K1 CMKLR1 β-Arrestin Cells were grown in RPMI lacking phenol red (Gibco, Life Technologies), supplemented with L-glutamine, penicillin-streptomycin, sodium pyruvate, non-essential amino acid, BCS, hygromycin, and G418-sulfate.
β-arrestin recruitment assay. CMKLR1-CHO-β-Arrestin cells were seeded in 96 well plates at 1×10^5 cell/ml-100 ul/well and incubated overnight at 37° C., 5% CO2. The next day, media was removed and cells were pre-incubated in PBS with α-NETA or test compound (95 ul/well) in a 6 point dose response curve from 100 μM to 0.3 μM for 10 min at RT. (α-NETA and test compounds were reconstituted in DMSO; final DMSO concentration in each well was 0.1%). After 10 min, 5 ul of recombinant human chemerin (R&D Systems) at a final concentration of 20 nM was added to each well. Plates were incubated for 90 min at 37° C., 5% CO2. Media was then removed and 50 ul of chemiluminescent substrate (Tropix Gal-Screen, Applied Biosciences) was added. The plate was incubated for 1 hr at RT and luminescence was detected using the SpectraMax M5 plate reader (Molecular Devices). For each independent trial (single replicate dose curves), data was normalized to the maximum signal per compound tested and an IC50 value was generated using GraphPad Prism software. The average IC50 value for n independent trials (as specified in the table) is reported.

[1] = target: Pregnane X receptor (PXR) (Homo sapiens, UniProt O75469); assay: Cyp induction (PXR luciferase reporter); assay type: cell-based; conditions: concentrations up to 50 uM
Pregnane X receptor (PXR), sequence (O75469 whole entry): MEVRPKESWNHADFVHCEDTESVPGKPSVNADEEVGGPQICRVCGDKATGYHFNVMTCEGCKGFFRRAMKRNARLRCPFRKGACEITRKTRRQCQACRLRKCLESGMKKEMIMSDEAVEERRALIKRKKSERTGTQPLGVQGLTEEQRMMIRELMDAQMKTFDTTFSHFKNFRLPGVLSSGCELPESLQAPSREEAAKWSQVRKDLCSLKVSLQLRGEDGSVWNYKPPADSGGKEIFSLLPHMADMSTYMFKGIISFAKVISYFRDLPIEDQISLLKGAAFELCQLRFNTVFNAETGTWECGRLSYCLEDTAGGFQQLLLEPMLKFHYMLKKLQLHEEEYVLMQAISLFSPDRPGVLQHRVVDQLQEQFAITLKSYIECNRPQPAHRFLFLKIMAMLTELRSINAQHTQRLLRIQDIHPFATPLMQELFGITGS
Procedure: (§2) Pregnane X receptor (PXR) activation was used as a marker of Cyp induction.
Pregnane X receptor (PXR) activation was used as a marker of Cyp induction. An engineered human hepatoma cell line with a PXR luciferase reporter was incubated with the indicated concentrations of α-NETA, Rifampicin (positive control), or DMSO (negative control), and luciferase activity assessed (Cyprotex/Evotec AG).

hERG = target: T2, hERG (Homo sapiens, UniProt Q12809); assay: hERG inhibition patch-clamp assay, CHO-hERG cells; assay type: cell-based; conditions: hERG tail current, preliminary studies
T2 construct: host or cells: CHO
T2 sequence (Q12809 whole entry): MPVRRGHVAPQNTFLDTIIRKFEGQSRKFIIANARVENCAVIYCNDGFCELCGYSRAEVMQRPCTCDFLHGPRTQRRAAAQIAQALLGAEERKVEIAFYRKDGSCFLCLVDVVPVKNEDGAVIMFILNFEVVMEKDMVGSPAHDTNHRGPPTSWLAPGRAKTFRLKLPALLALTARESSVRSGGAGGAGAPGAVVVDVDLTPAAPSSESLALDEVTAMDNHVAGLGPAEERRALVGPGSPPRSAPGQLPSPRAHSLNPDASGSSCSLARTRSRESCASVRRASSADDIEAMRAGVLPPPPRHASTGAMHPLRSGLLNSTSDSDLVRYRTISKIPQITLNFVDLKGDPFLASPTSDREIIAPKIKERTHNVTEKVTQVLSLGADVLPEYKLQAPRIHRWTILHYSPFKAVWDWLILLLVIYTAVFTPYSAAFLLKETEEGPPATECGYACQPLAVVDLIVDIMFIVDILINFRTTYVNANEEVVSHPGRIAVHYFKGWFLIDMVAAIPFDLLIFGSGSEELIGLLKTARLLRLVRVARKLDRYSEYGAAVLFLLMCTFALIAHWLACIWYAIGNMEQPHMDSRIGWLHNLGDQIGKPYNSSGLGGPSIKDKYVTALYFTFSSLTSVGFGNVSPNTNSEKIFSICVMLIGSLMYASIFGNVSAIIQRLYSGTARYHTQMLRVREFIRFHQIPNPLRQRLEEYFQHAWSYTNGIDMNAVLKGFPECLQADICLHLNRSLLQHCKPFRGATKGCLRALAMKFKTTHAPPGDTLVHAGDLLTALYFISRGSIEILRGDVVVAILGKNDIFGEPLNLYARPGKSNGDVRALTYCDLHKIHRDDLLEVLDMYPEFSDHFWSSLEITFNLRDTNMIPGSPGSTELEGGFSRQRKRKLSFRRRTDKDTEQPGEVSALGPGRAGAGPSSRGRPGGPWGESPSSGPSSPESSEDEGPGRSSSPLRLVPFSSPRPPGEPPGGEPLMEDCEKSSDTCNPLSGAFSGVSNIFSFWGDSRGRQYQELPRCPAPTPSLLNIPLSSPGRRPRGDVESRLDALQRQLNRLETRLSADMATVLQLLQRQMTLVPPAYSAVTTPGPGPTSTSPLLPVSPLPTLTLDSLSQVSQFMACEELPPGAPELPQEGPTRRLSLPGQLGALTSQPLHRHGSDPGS
Procedure: as §2
The cell was depolarized, and the hERG tail current was measured, and IC50 determined (Cyprotex/Evotec AG).

[2] = system: IMQ-induced psoriasis in mice; assay: IMQ-induced psoriasis model; assay type: in vivo, mouse
Procedure: FIG. 11A-11G. […] Representative images of the same mouse shown over time. […] Mice were treated twice daily with IMQ±dexamethasone (DEX, 200 ug/mouse) 1 h prior to IMQ treatment. […] (FIG. 11G) NK cell (CD45+DX5+CD11b-CD3-CD19-) infiltration into lesional or non-lesional adjacent skin was determined by flow cytometry (6 day timepoint) for IMQ-treated WT and chemerin KO mice. mean±SEM, n=4 mice per genotype, ***p<0.005 by 2-tailed t-test; **p<0.01 by 2-tailed t-test; *p<0.05 by 1-tailed t-test.
FIG. 13A-13D. […] Fold change with respect to day 0 measurements are shown. […] For A-C, n=3 untreated, n=5 IMQ-treated mice of each genotype, mean±SEM, *p<0.05 by 2-tailed t-test.
as §1

Cyp1A2 = Cyp1A2 (Homo sapiens, UniProt P05177); conditions: PubChem BioAssay ID 1476; read-out: Cyp Inhibition IC50 (μM), Cyp1A2; cited from earlier work
Cyp1A2, sequence (P05177 whole entry): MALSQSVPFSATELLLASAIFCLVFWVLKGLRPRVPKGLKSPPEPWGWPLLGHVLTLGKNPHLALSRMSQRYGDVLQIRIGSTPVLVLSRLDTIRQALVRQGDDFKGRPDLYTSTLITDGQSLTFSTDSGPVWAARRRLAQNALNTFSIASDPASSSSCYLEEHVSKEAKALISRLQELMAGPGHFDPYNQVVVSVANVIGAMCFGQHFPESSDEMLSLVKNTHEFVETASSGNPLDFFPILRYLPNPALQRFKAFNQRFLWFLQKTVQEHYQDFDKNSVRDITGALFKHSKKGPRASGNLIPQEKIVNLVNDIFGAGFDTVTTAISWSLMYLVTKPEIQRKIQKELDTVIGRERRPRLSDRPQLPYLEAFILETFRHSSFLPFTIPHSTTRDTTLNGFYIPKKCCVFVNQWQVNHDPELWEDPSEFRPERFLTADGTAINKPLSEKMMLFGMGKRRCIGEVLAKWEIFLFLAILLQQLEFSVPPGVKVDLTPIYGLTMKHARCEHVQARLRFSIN

Cyp2D6 = target: T3, Cyp2D6 (Homo sapiens, UniProt P10635); conditions: PubChem BioAssay ID 1461; read-out: Cyp Inhibition IC50 (μM), Cyp2D6; cited from earlier work
T3 construct: tissue Cyprotex/Evotec AG; host or cells: human liver microsomes
T3 sequence (P10635 whole entry): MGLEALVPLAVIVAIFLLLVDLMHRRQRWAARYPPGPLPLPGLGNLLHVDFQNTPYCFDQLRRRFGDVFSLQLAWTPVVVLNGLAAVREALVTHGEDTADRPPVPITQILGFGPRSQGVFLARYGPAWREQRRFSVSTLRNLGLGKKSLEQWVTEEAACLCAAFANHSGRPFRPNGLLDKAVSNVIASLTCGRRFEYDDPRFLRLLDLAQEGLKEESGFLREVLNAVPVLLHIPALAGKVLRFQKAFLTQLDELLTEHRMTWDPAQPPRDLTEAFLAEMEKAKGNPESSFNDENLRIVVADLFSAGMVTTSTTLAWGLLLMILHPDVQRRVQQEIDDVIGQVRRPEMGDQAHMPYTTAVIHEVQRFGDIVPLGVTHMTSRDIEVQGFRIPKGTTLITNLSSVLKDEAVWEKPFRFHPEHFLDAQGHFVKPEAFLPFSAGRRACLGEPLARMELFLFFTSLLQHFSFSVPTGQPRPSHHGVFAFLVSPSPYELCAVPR

Cyp3A4 = Cyp3A4 (Homo sapiens, UniProt P08684); conditions: substrate luciferin-6′ phenylpiperazinylyl; read-out: Cyp3A4 IC50 listed in PubChem; cited from earlier work
Cyp3A4, sequence (P08684 whole entry): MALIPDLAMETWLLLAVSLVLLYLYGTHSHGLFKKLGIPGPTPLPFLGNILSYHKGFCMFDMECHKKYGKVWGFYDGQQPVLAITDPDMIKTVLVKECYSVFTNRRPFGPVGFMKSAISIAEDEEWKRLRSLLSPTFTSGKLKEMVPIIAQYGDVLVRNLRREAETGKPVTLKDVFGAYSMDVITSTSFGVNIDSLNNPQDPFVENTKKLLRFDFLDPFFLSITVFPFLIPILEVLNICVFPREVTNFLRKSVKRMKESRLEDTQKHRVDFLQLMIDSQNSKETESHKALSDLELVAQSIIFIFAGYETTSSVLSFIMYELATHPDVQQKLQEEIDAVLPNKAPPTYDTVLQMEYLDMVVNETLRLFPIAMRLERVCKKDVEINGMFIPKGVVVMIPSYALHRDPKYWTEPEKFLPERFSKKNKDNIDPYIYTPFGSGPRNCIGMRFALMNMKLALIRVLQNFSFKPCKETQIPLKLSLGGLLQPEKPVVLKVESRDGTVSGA

With `C[N+](C)(C)CCC(=O)c1cccc2ccccc12.[I-]` [α-NETA, 2-(α-naphthoyl) ethyltrimethylammonium iodide] the IC50 (CMKLR1; Table 2, tertiary amines, chemerin 20 nM, CHO transfectants, read-out: β-arrestin IC50 μM mean ± SEM (n)) was 4.9 ± 1.5 µM, the IC50 (CMKLR1; initial studies, 4-5 years earlier, different source of α-NETA, read-out: β-arrestin2 inhibition IC50) was 0.38 µM and the IC50 (CMKLR1; values given in running text b220, read-out: β-arrestin2 assay IC50) was 2.3 µM. For the same molecule, the “PXR activation (marker of Cyp induction)” value [1] was “did not induce substantial PXR activity”, the IC50 (hERG) was greater than 10 µM and the back skin thickening ([2]; 10 mg/kg s.c., 24 h timepoint) was “significantly suppressed”. The back skin acanthosis ([2]; 30 mg/kg p.o. daily, 7 days, vs vehicle control) was “significantly diminished”, the “clinical features of experimental psoriasis” value ([2]; oral gavage in 10% captisol, FIG. 15D) was “suppressed” and the IC50 (Cyp1A2) was 8 µM. For the same molecule, the IC50 (Cyp2D6) was greater than 10 µM and the IC50 (Cyp3A4) was 0.2 µM.
